# Measurements: ChEMBL document CHEMBL1148772, “Inhibition of Mycobacterium tuberculosis, Mycobacterium bovis, and Mycobacterium avium by novel dideoxy nucleosides” (J Med Chem, 2007)
# Assays:
# [1] = tested on: Mycobacterium tuberculosis; test: Antimycobacterial activity against Mycobacterium tuberculosis H37Ra at 50 uM by microplate alamar blue assay; type: functional
# Mycobacterium avium [2] = test: Antimycobacterial activity against Mycobacterium avium ATCC 25291 at 100 uM by microplate alamar blue assay; type: functional
# [3] = tested on: Mycobacterium tuberculosis; test: Antimycobacterial activity against Mycobacterium tuberculosis H37Ra at 100 uM by microplate alamar blue assay; type: functional
# [4] = Cytotoxicity against human foreskin fibroblast cells by MTT assay; type: cell-based
# [5] = tested on: Mycobacterium tuberculosis; test: Antimycobacterial activity against Mycobacterium tuberculosis H37Ra at 10 uM by microplate alamar blue assay; type: functional
# [6] = Cytotoxicity against Vero cells by MTT assay; type: cell-based; settings: African green monkey
# [7] = tested on: Mycobacterium tuberculosis; test: Antimycobacterial activity against Mycobacterium tuberculosis H37Ra by microplate alamar blue assay; type: functional
# Mycobacterium avium [8] = test: Antimycobacterial activity against Mycobacterium avium ATCC 25291 at 50 uM by microplate alamar blue assay; type: functional
# Mycobacterium avium [9] = test: Antimycobacterial activity against Mycobacterium avium ATCC 25291 at 10 uM by microplate alamar blue assay; type: functional
# Streptococcus pyogenes = test: Antibacterial activity against Streptococcus pyogenes ATCC 19615; type: functional
# Streptococcus pneumoniae = test: Antibacterial activity against Streptococcus pneumoniae ATCC 49619; type: functional
# [10] = tested on: Mycobacterium tuberculosis; test: Antimycobacterial activity against Mycobacterium tuberculosis H37Ra at 1 uM by microplate alamar blue assay; type: functional
# Bacillus subtilis = test: Antibacterial activity against Bacillus subtilis ATCC 6633; type: functional
# Mycobacterium avium [11] = test: Antimycobacterial activity against Mycobacterium avium ATCC 25291 by microplate alamar blue assay; type: functional
# Mycobacterium avium [12] = test: Antimycobacterial activity against Mycobacterium avium ATCC 25291 at 2 uM by microplate alamar blue assay; type: functional
Structure (SMILES),inhibition at 50 µM [1] [%],inhibition at 100 µM (Mycobacterium avium [2]) [%],inhibition at 100 µM [3] [%],also measured
N#Cc1cn(C2CCC(CO)O2)c2ncnc(N)c12 (stereo unspecified),40,0,50,
CCCCCCCCCCCC#Cc1cn([C@H]2C[C@H](F)[C@@H](CO)O2)c(=O)[nH]c1=O,100,25,100,CC50 [4]: > 100 µg/mL; inhibition at 10 µM [5]: 60%; CC50 [6]: > 100 µg/mL; MIC90 [7]: 10 µg/mL
CCCCCCCCC#Cc1cn([C@H]2CC[C@@H](CO)O2)c(=O)[nH]c1=O,100,90,100,CC50 [4]: > 100 µg/mL; inhibition at 50 µM (Mycobacterium avium [8]): 25%; inhibition at 10 µM (Mycobacterium avium [9]): 25%; MIC (Streptococcus pyogenes): 100 µg/mL; inhibition at 10 µM [5]: 100%; MIC (Streptococcus pneumoniae): 100 µg/mL; inhibition at 1 µM [10]: 50%; CC50 [6]: > 100 µg/mL; MIC (Bacillus subtilis): 100 µg/mL; MIC90 (Mycobacterium avium [11]): 100 µg/mL; MIC90 [7]: 1 µg/mL
Nc1nc(=O)n([C@H]2CC[C@@H](CO)O2)cc1I,,0,0,
CC(=O)OC[C@@H]1CC[C@H](n2cc(Cl)c(=O)[nH]c2=O)O1,,0,0,
Cc1cn([C@H]2CC[C@@H](CO)O2)c(=O)nc1N,50,0,50,inhibition at 10 µM [5]: 50%
NC(=O)c1cn([C@H]2CC[C@@H](CO)O2)c2ncnc(N)c12,,0,0,
Nc1nc(F)c2ccn([C@H]3CC[C@@H](CO)O3)c2n1,40,100,50,inhibition at 50 µM (Mycobacterium avium [8]): 100%; inhibition at 10 µM (Mycobacterium avium [9]): 35%; inhibition at 10 µM [5]: 25%; MIC90 (Mycobacterium avium [11]): 10 µg/mL
O=c1[nH]c(=S)c(Cl)cn1[C@H]1CC[C@@H](CO)O1,50,0,100,MIC90 [7]: 50 µg/mL
CCCCCCCCCCCCC#Cc1cn([C@H]2CC[C@@H](CO)O2)c(=O)[nH]c1=O,100,100,100,CC50 [4]: > 100 µg/mL; inhibition at 50 µM (Mycobacterium avium [8]): 50%; inhibition at 10 µM [5]: 50%; inhibition at 1 µM [10]: 25%; CC50 [6]: > 100 µg/mL; MIC90 (Mycobacterium avium [11]): 50 µg/mL; MIC90 [7]: 10 µg/mL
Nc1nc(N)c2ncn([C@H]3CC[C@@H](CO)O3)c2n1,,0,25,
Nc1nc(O)c2ncn([C@H]3CC[C@@H](CO)O3)c2n1,,0,0,
CC[C@H]1OC(=O)[C@H](C)[C@@H](O[C@H]2C[C@@](C)(OC)[C@@H](O)[C@H](C)O2)[C@H](C)[C@@H](O[C@@H]2O[C@H](C)C[C@H](N(C)C)[C@H]2O)[C@](C)(OC)C[C@@H](C)C(=O)[C@H](C)[C@@H](O)[C@]1(C)O [CLARITHROMYCIN],,,,inhibition at 2 µM (Mycobacterium avium [12]): 95%; MIC90 (Mycobacterium avium [11]): 2 µg/mL
Nc1ccn([C@@H]2CS[C@H](CO)O2)c(=O)n1 [LAMIVUDINE],,0,0,
COc1nc(N)nc2c1ncn2[C@H]1CC[C@@H](CO)O1 [METACAVIR],,20,0,inhibition at 50 µM (Mycobacterium avium [8]): 20%
CO[C@H]1/C=C/O[C@@]2(C)Oc3c(C)c(O)c4c(O)c(c(/C=N/N5CCN(C)CC5)c(O)c4c3C2=O)NC(=O)/C(C)=C\C=C\[C@H](C)[C@H](O)[C@@H](C)[C@@H](O)[C@@H](C)[C@H](OC(C)=O)[C@@H]1C [RIFAMPIN],,,,inhibition at 2 µM (Mycobacterium avium [12]): 90%; MIC90 (Mycobacterium avium [11]): 2 µg/mL; MIC90 [7]: 0.5 µg/mL
Nc1ccn([C@H]2CC[C@@H](CO)O2)c(=O)n1 [ZALCITABINE],,0,0,
